Values of other authors, collected in article PMC2817966 (Journal of chemical information and modeling, 2009).

| Structure (SMILES) | potency towards WT HIV-1 (WT HIV-1) [nM] | activity towards a Y181C variant (Tyr181Cys variant) [µM] | IC50 (WT HIV-1; read-out: IC50 against WT HIV) [nM] | IC50 (Tyr181Cys variant; read-out: IC50 against Tyr181Cys variant) [nM] |
| --- | --- | --- | --- | --- |
| CC(Sc1nc(N)cc(Cl)n1)c1cc2ccoc2cn1 (single isomer, unassigned; (-)) [PNU142721, (-)-6-Chloro-2-[(1-furo[2,3-c]pyridin-5-ylethyl)thio]-4-pyrimidinamine] | 1 | 1 | – | – |
| Cc1cc(C)cc(Oc2c(CSCc3ccco3)c(C)[nH]c(=O)c2I)c1 [Compound R221239] | – | – | 2 | 5 |
